Measurements taken from US20220313620A1, “COMPOSITION FOR PREVENTING AND TREATING TAUOPATHIES” (SERVICIO ANDALUZ DE SALUD, priority 2019, published 2022).

Key:
[1] = test system: glycogen synthase kinase-3β (GSK-3β); experiment: Hippocampal GSK-3β phosphorylation and total level (western blot) after 10 days of oral administration; assay type: in vivo, Wistar rats; details: oral 100 mg/Kg for 10 days, hippocampus
Protocol: (§1) Animal experimental procedures were carried out in accordance with the European Communities directive 2010/63/EU and Spanish legislation (Real Decreto 53/2013). The protocol was approved by the Research and approved by Ethics Committee for Animal Experiments of the University of Malaga, Spain. In accordance with the ARRIVE guidelines, all efforts were made to minimize animal suffering and to reduce the number of animals used per experimental group. Chronic drinking experiments on Wistar rats were performed on 20 male rats. All adult rats, ageing 2 months (≈300 g of body weight), were provided by Charles River Laboratories (Barcelona, Spain). The animals were housed individually under a standard 12 h light-dark cycle in a room with temperature and humidity control. Water and rat chow pellets were provided ad libitum throughout the course of the present study.
(§2) Caromax®-D-Pinitol (3-O-methyl-d-chiro-inositol, DPIN, 98% purity) and Caromax®-D-Chiro-inositol (cis-1,2,3-trans-3,5,6-cyclohexanehexol, DCI) were provided by Euronutra SL (Málaga, Spain). They were dissolved in water to orally daily administration by drinking and/or gavage at dose of 100 mg/Kg of body weight (BW) in a 1 ml/kg of BW volume to Zucker and Wistar rats for 4 weeks (28 days) and 10 days, respectively (FIG. 1). During the drinking treatments, the concentration of inositols in the water were updated considering the daily increase of BW of the rats and the possible loss of water by evaporation.
(§3) Brain extract. Frozen brain samples (17 mg per sample) were homogenized in 1 mL of cold RIPA lysis buffer (50 mM Tris-HCl pH 7.4, 150 mM NaCl, 0.5% NaDOC, 1 mM EDTA, 1% Triton, 0.1% SDS, 1 mM Na3VO4, 1 mM NaF) supplemented with a protease cocktail (Hoffmann-Roche). The suspension was incubated for 2 hours at 4° C., followed by centrifugation at 12,000 rpm for 15 minutes at 4° C. The supernatant was transferred to a new clean centrifuge tube, and Bradford colorimetric method was used to determine the concentration of the total protein. The protein extracts were diluted 1:1 in loading buffer (DTT 2X) and heated for 5 minutes at 99° C. before being subjected to electrophoresis.
Western Blot Analysis. The tissue protein (10-15 μg) was subjected to electrophoresis on 4-12% Criterion XT Precast Bis-Tris gels (Bio-Rad, USA) for 30 minutes at 80V and 2 h at 150V. Proteins were transferred onto a 0.2 μm nitrocellulose membrane (Bio-Rad, USA) for 1 h at 80V by wet transfer equipment. The membrane was washed twice for 5 min in TBST (10 mM Tris-HCl, 150 mM NaCl, 0.1% Tween 20, pH 7.6) and blocked with 2% Bovine Serum Albumin-Tris Buffered Saline Tween 20 (BSA-TBST) for one hour at room temperature on a shaker platform. Subsequently, the membrane was incubated with respective primary antibodies overnight at 4° C. diluted in 2% BSA-TBST (Table 2 for additional information). The following day, the membrane was washed three times for 5 min with TBST. An appropriate HRP conjugated rabbit/mouse secondary antibody (Promega) was diluted 1:10000 in 2% BSA-TST and incubated with the membrane for 1 h shaking at room temperature. Finally, the membrane was washed as above and exposed to chemiluminescent reagent (Santa Cruz, Biotechnology Inc.) for 5 min. Stripping/reproving steps were used when necessary. Respective membrane bound protein was then visualized by Chemiluminescence (ChemiDoc Imaging System, Bio-Rad). Bands were quantified by densitometric analysis using ImageJ software (Rasband, WS, ImageJ, US National Institutes of Health, Bethesda, Md., USA). Normalization was performed using a reference protein of the same membrane, the α-Adaptin. The results were expressed as the protein/α-Adaptin ratio or phosphorylated/total protein ratio and normalized to the control group (Y axis represents ‘fold mean of the control values’).
All data are expressed as mean±SEM. Statistical analysis was undertaken for studies where each group size was of, at least, n=5. […]

Ghrelin = experiment: Plasma ghrelin (ELISA) after acute oral gavage in fasted rats; assay type: in vivo; details: oral 500 mg/kg, adult male Wistar rats, FIG. 3A / FIG. 4
Protocol: The protocol was approved by the Ethics Committee for Animal Experiments of the University of Malaga.
D-Pinitol (3-0-methyl-D-chiro-inositol) was generously provided by EURONUTRA SL (https://www.euronutra.com/, Malaga, Spain), in the form of crystalline fine powder (lot: PPN-M0201). For acute treatments, D-Pinitol was dissolved in water to be administered by gavage (orally) at different concentrations (100 mg/Kg and 500 mg/Kg), drug was administered at a volume of 1 ml/kg.
After 18 hours of fasting, D-Pinitol dissolved in water was administered acutely by gavage (100 mg/kg in a first study, and 500 mg/kg in a subsequent study). After administration, the animals were sacrificed in groups at different times (being time 0 the administration of D-Pinitol). For the first study (100 mg/kg), groups of animals were sacrificed at times: 10, 20, 30, 60, 120, 240 and 360 minutes after administration; for the second study (500 mg/kg), animals were sacrificed at times: 60, 120 and 240 minutes after administration. As a control group, a group was administered only with water (by gavage).
Animals were anesthetized with sodium pentobarbital (50 mg/Kg, i.p.), blood, brain and liver samples were collected. Blood was centrifuged (2100 g for 8 min, 4° C.) and the plasma kept for further analysis. Liver and brain samples were flash-frozen in liquid N2, then stored at −80° C. until further analysis.
The plasma levels of insulin and ghrelin were determined with an enzyme-linked immunosorbent assay (ELISA) method using commercial kits: EMD Millipore Corporation (Billerica, Mass., USA) Cat. #EZRMI-13K and Cat. #EZRGRT-91K, respectively. Glucagon levels in plasma was determined with a Glucagon Enzyme Immunoassay (EIA) Kit: Cat. #RAB0202 Sigma-Aldrich (Saint Louis, Mo., USA). All serum samples were assayed in duplicate within one assay, and results were expressed in terms of the particular standard hormone.

tau protein = experiment: Hippocampal tau phosphorylation and total tau (western blot) after 10 days of oral drinking; assay type: in vivo, Wistar rats; details: oral by drinking 100 mg/Kg for 10 days, hippocampus
Protocol: as §1, §2, §3
Western Blot Analysis. The tissue protein (10-15 μg) was subjected to electrophoresis on 4-12% Criterion XT Precast Bis-Tris gels (Bio-Rad, USA) for 30 minutes at 80V and 2 h at 150V. […] Bands were quantified by densitometric analysis using ImageJ software (Rasband, WS, ImageJ, US National Institutes of Health, Bethesda, Md., USA). […] The results were expressed as the protein/α-Adaptin ratio or phosphorylated/total protein ratio and normalized to the control group (Y axis represents ‘fold mean of the control values’).
All data are expressed as mean±SEM. […]

`OC1C(O)C(O)C(O)C(O)C1O` [DCI, (1R,2R,3S,4S,5S,6S)-cyclohexane-1,2,3,4,5,6-hexol] was tested, and the “GSK-3β serine-9 phosphorylation” value ([1]; FIG. 9A.1) was “no effect”, the “GSK-3β tyrosine-216 phosphorylation” value ([1]; FIG. 9A.2) was “no effect” and the “GSK-3β kinase activity (Ser9/Tyr216)” value ([1]; FIG. 9A.3) was “neither enhance nor inhibition”. The “circulating plasma Ghrelin concentration” value (Ghrelin) was “enhances”, the “quantity of phospho-tau (AT8: Ser202, Thr205) compared with vehicle group” value (tau protein; FIG. 7A.1) was “dropped to more than half” and the “relative protein levels of total tau compared with vehicle group” value (tau protein; FIG. 7A.2) was “rise”.
